The source of these data is PMC4151304 (European journal of medicinal chemistry, 2012).

Structures are written as SMILES.

The target in assay [1] is T1, PRMT1 (Rattus norvegicus, UniProt Q63009). Briefly: Radioactive methyltransferase assay, PRMT1. Type of assay: biochemical. The note with it: for IC50: IC50, His6x-PRMT1 0.05 μM, 2 μM H4(1-20), 5 μM [14C]-SAM, 30°C.
Assay [2] has as its target PRMT1 Y152A (Rattus norvegicus, UniProt Q63009, Y152A). The experiment in a line: Radioactive methyltransferase assay, PRMT1 mutant Y152A. The class given is biochemical. As to conditions: 4 μM inhibitor, 2 μM H4-20, 5 μM [14C]AdoMet.
The test system of assay [3] is HeLa cells. Briefly: Cell cycle assay by flow cytometry. Type of assay: cell-based. The note with it: 48 h of treatment at 2.5 and 5 μM (data not shown).
The target in assay [4] is T2, PRMT4/CARM1 (Mus musculus, UniProt Q9WVG6).
T2 sequence (Q9WVG6 1-608): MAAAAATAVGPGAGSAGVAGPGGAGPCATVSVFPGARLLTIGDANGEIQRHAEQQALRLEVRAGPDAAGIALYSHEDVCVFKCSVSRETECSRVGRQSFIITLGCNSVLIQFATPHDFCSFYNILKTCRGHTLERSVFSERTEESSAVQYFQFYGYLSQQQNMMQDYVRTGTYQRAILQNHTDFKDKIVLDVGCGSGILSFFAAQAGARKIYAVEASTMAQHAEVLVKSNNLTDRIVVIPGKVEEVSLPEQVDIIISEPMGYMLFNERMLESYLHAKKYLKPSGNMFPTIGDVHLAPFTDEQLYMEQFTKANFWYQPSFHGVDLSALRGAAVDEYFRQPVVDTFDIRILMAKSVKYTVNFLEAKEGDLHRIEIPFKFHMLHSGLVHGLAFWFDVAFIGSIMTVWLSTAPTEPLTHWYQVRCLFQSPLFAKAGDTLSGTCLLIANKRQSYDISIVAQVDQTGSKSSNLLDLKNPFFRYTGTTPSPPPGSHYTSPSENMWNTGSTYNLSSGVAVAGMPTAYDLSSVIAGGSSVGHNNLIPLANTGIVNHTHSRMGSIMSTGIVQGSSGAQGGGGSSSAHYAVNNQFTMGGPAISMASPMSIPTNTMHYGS
The experiment in a line: Radioactive methyltransferase assay, CARM1. Type of assay: biochemical.

For assay [5], the target named is T1, PRMT1. The experiment in a line: Dialysis experiment and time-dependent inhibition. The class given is biochemical. The note with it: dialysis and time-dependent inhibition (0, 1.5, 2.5, 4.0 μM).

T1 sequence (Q63009 whole entry): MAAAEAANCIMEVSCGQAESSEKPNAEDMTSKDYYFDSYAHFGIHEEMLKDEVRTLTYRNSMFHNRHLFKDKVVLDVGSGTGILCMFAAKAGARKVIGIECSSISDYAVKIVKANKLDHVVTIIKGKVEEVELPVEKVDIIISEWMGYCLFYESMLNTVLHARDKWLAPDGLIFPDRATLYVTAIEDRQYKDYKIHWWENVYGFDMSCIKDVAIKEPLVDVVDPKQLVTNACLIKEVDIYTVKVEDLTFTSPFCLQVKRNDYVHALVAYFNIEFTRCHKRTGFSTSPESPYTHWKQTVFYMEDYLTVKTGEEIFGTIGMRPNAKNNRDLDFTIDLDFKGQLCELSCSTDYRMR
Sequence of PRMT1 Y152A (Q63009 whole entry Y152A): as the sequence (Q63009 whole entry) above, with Y152A counted along it

As for `CCCCn1/c(=C\C=C\C2=[N+](CCCC)c3cccc4cccc2c34)c2cccc3cccc1c32` [compound 12, 1-butyl-2-[3-(1-butyllbenz[c,d]indol-2(1H)-ylidene)-1-propen-1-yl]-iodide], the IC50 in assay [1] is 12 ± 0.5 µM. For the compound `CCN1/C(=C\C=C\C2=[N+](CC)c3ccccc3C2(C)C)C(C)(C)c2ccccc21` [compound 22], in assay [1], the half-maximal inhibitory concentration (IC50) came to 284 ± 3.5 µM. For the compound `CCN1/C(=C/C=C/C2=[N+](CC)c3ccc4ccccc4c3C2(C)C)C(C)(C)c2c1ccc1ccccc21` [compound 25], in assay [1], the IC50 was 20.3 ± 0.2 µM. Consider `CC1(C)C(/C=C/C=C2/N(CCC[N+](C)(C)C)c3ccc(Br)cc3C2(C)C)=[N+](CCC[N+](C)(C)C)c2ccc(Br)cc21` [compound 29], for which, in assay [1], the IC50 stood at 292 ± 40.1 µM. Same read-out and setting: the same measure for `CCCCN1/C(=C\C=C\C2=[N+](CCCC)c3ccc4ccccc4c3C2(C)C)C(C)(C)c2c1ccc1ccccc21` [compound 26]: 18 ± 0.5 µM.

For `CCn1/c(=C\C=C\C2=[N+](CC)c3cccc4cccc2c34)c2cccc3cccc1c32.[I-]` [compound 11, 1-ethyl-2-[3-(1-ethylbenz[c,d]indol-2(1H)-ylidene)-1-propen-1-yl]-iodide], in assay [2], the “inhibition of Y152A PRMT1 compared with wt-PRMT1” value is recorded as “same potency as is for wt-PRMT1”. Besides, the “Sub-G1 population, indicative of apoptosis” value in assay [3] was “appearance of a hypodiploid peak (Sub-G1) was observed”. Also, in assay [1] (steady-state kinetics, with regard to both H4 and AdoMet substrates), the “kinetic pattern of inhibition” value is reported as “noncompetitive inhibitor”. Moreover, the IC50 in assay [4] was roughly 100 µM. For the same compound, in assay [5], the “reversible vs irreversible inhibition” value was “reversible”. On to `C(/C=C/C1=[N+](CCCc2ccccc2)c2cccc3cccc1c23)=c1\c2cccc3cccc(c32)n1CCCc1ccccc1` [compound 13, 1-phenylpropyl-2-[3-(1-phenylpropylbenz[c,d]indol-2(1H)-ylidene)-1-propen-1-yl]iodide], for which, in assay [1], the IC50 is 15.5 ± 0.2 µM. Consider `CC1(C)C(/C=C/C=C2/N(CCCc3ccccc3)c3ccc4ccccc4c3C2(C)C)=[N+](CCCc2ccccc2)c2ccc3ccccc3c21` [compound 27], for which the IC50 in assay [1] was 14.3 ± 0.2 µM.
